Experimental data reported in patent US12161669B2, “Compositions and methods for cell targeting therapies” (UMC UTRECHT HOLDING B.V., priority 2017, dated 2024).

Legend:
RhoB GTPase = biological target: T1, RhoB GTPase (Homo sapiens, UniProt P62745); assay: Biolayer interferometry of RhoB binding to BTN3A1 (CD277) intracellular domains; conditions: for kd (1/s) / kd(1/Ms) / Kd: BLI, 1:1 binding model; for Kd: RhoB immobilized on Ni-NTA biosensor, cHDMAPP at 1:1 where named; for RhoB binding to recombinant CD277 intracellular domain constructs: without phosphoantigen
T1 construct: The full length RhoB protein was cloned into the pET 28a vector; thrombin cleavage site (C); made in house; host or cells: Escherichia coli BL21
T1 sequence (O00481 272-513 partner limits assumed): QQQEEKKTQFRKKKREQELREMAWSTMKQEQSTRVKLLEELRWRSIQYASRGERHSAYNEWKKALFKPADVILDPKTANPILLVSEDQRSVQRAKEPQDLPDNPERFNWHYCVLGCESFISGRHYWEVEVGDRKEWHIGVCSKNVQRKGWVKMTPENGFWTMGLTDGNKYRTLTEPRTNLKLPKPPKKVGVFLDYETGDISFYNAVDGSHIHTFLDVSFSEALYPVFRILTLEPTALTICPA
T1 sequence (P62745 1-192 limits assumed): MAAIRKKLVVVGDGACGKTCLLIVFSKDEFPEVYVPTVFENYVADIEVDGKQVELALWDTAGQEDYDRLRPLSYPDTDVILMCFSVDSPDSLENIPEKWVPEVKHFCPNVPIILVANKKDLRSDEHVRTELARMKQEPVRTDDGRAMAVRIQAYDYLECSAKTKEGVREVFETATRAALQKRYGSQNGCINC
Procedure: To determine whether CD277 exists as a homodimer when expressed in a cellular context, and to study RhoB-CD277 interactions at even higher resolution, close interactions by utilizing fluorescence resonance energy transfer (FRET) were examined. Flow cytometry FRET measurements were performed on ABP-sensitive HEK 293 cells, by either overexpressing FRET compatible fusion proteins or labeling endogenous proteins with antibodies coupled to FRET-compatible fluorochromes. […] Biolayer Interferometry (BLI) was used to formally define a possible docking site for RhoB on the intracellular domain of CD277.
The interactions between RhoB and BTN3A1 full-length intracellular domain (BFI) or BTN3A1 B30.2 domain were measured using Biolayer interferometry (BLItz, FortéBio). The BLI buffer used in baseline equilibration and the dissociation step was prepared with 10 mM Hepes pH7.2, 150 mM NaCl, 0.02% azide, 5 mM MgCl2, 4 mM BME. RhoB, at a concentration of 2 mg/ml, was immobilized on the Ni-NTA biosensor hydrated with the BLI buffer using the basic kinetics method with the following parameters: 30 s for baseline, 300 s for association and 300 s for dissociation. The RhoB-mounted biosensor was then blocked by 1 mg/ml BSA and equilibrated with the BLI buffer using a similar method with the following parameters: 30 s for baseline, 120 s for association and 120 s for dissociation. The buffer run served as a reference for the subsequent experiments. […] The ratio between cHDMAPP and BFI or B30.2 domain was kept at 1:1 for these measurements. The rate and affinity constants for binding interactions were analyzed by Biaevulation (Biacore Life Sciences). The data was truncated to 180 s and the ka and kd were fitted simultaneously using 1:1 binding with drift baseline model.

CD277 [1] = assay: FRAP of CD277-emGFP membrane mobility in HEK 293 cells; assay type: cell-based; conditions: 293 HEK cells; for CD277 membrane mobility (immobile fraction, FRAP): single agent
Procedure: FRAP analysis was performed as previously described (Harly et al., 2012, Sandstrom et al., 2014). In brief, HEK293FT cells expressing either EmGFP-fused CD277 were laid on m-slides (Ibidi) and analyzed using a Nikon A1 RS confocal microscope (60×NA 1.40 oil immersion objective). Selected rectangular areas were photobleached for 500 ms by using full power of laser intensity (>90% of loss of fluorescence). Images were collected every 5 s, before (30 s) and after (120 s) bleaching using low laser intensity. Images were analyzed with Metamorph 7.5 (Molecular Devices, Universal Imaging) and NIS (Nikon) imaging software. The resulting curves were fitted using one-phase exponential equations.

CD277 and F-actin = assay: Colocalization of CD277 and F-actin in HEK 293 cells; assay type: cell-based
Procedure: To determine colocalization between BTN3 molecules and the actin cytoskeleton, HEK 293 cells were grown onto poly-L-lysin-coated coverslips and pretreated with either calpeptin (2 μg/ml) or C3 transferase (20 μg/ml) prior to treating samples with pamidronate Cells were fixed, permeabilized and BTN3 and F-actin were stained with DyLight 680-conjugated BTN3 antibody (clone BT3.1, Novus Biologicals) and Fluorescein-coupled phalloidin (Sigma), respectively. The correlation coefficient between BTN3 and F-actin signal was determined as a measure of colocalization using Volocity software.

EBV-LCL 93 cells = assay: IFNγ by Vγ9Vδ2 TCR+ T cells against Rho-modulator pretreated EBV-LCL 93; assay type: cell-based; conditions: target cell pretreatment with Rho activator, in combination with pamidronate or IPP
Procedure: (§1) The impact of RhoB GTPase activity on Vγ9Vδ2 TCR+ T cell activation was assessed by […] different tumor cell lines with either the Rho GTPase activator calpeptin or inhibitor C3 transferase. […] To specify that enzymatic activity of RhoB regulates tumor cell recognition by Vγ9Vδ2 TCR+ T cells, we transfected HEK 293 cells with wildtype or dominant negative form corresponding to the GDP-bound state (RhoB-DN), or with the constitutively active form corresponding to the GTP-bound form (RhoB-CA) of RhoB (Kamon et al., 2006) and used them as target cells for Vγ9Vδ2 TCR+ T cells (FIG. 4E).
(§2) Alternatively, Vγ9Vδ2 TCR-transduced T cells and target cells were cocultured as above in round-bottom 96-well plates, and IFNγ levels in supernatants were measured by ELISA. Where indicated, target cells were pretreated with pamidronate (100 μM), IPP (15 μM), FTI (10 μM), GGTI (50 μM), calpeptin (2 μg/ml) or C3 transferase (20 μg/ml) prior to coincubation. For testing stimulation of WT1 αβTCR-transduced T cells, the HLA-A2+ cell lines EBV-LCL 48 and MZ1851RC were pulsed with 10 μM WT1126−134 peptide.

LCL 48 cells = assay: IFNγ by Vγ9Vδ2 TCR+ T cells against Rho-modulator pretreated EBV-LCL 48; assay type: cell-based; conditions: target cell pretreatment with Rho inhibitor, in combination with pamidronate or IPP
Procedure: as §1, §2

CD277 [2] = assay: Flow cytometry FRET between BODIPY FL-stained membrane and anti-CD277 mAbs (CD277 conformational change), HEK 293 cells; assay type: cell-based; conditions: with ABP
Procedure: Conformational change of BTN3 molecule was determined similarly as described in ([…] et al., 2001). Cells were labeled with 5 ug/ml BODIPY-FL DPHE (donor) (Life Technologies) for 10 minutes on ice and then 10 minutes at 37 C, then washed extensively with ice-cold PBS. Cells were subsequently labeled with mouse anti-CD277 mAbs (either clone #20.1 or #103.2) and Alexa594-conjugated Goat anti-Mouse Fab fragments (Jackson ImmunoResearch). After washing, cells were resuspended in ice cold PBS and measured immediately using a FACS Canto-II flowcytometer (BD). FRET efficiency was calculated from the fractional decrease of the donor fluorescence in the presence of the acceptor.

Compound	CD277 membrane mobility (immobile fraction, FRAP) (CD277 [1])	kd (1/s) (RhoB GTPase)	kd(1/Ms) (RhoB GTPase)	Kd (RhoB GTPase)	RhoB binding to recombinant CD277 intracellular domain constructs (RhoB GTPase)	also measured
C/C(=C\CCP(=O)(O)OP(=O)(O)O)CO [cHDMAPP, (2E)-1-hydroxy-2-methylpent-2-enyl-pyrophosphonate]						RhoB binding to BFI in the presence of soluble phosphoantigen (RhoB GTPase; phosphoantigen 1:1 with BFI): almost completely abolished
CCCC[C@@H](C=O)NC(=O)[C@H](CC(C)C)NC(=O)OCc1ccccc1 [calpeptin]	induced immobilization of CD277 to similar levels as those of ABP treatment alone					colocalization between CD277 and F-actin (CD277 and F-actin; single agent vs medium): reduced tantalization between CD277 and F-actin to comparable levels observed with ABP treatment; recognition of EBV-LCL 93 cells by Vγ9Vδ2 TCR+ T cells (IFNγ) (EBV-LCL 93 cells): significantly sensitized
O=P(O)(O)C(O)(Cn1ccnc1)P(=O)(O)O [zoledronate, zoledronic acid monohydrate]	decreased CD277 membrane mobility					
C3 transferase						effect on ABP-induced immobilization of CD277 (CD277 [1]; together with zoledronate): counteracted this ABP-effect; effect on ABP-induced CD277-actin segregation (CD277 and F-actin; pretreatment before pamidronate): prevented ABP-induced CD277-actin segregation; activation of Vγ9Vδ2 TCR+ T cells by LCL 48 cells (IFNγ) (LCL 48 cells): significantly reduced activation; effect on ABP-driven conformational changes of the CD277 homodimer (CD277 [2]): did not prevent
RhoB-B30.2: interaction of RhoB with recombinant CD277 B30.2 domain lacking the N terminal connector region		0.206 s⁻¹	2020 M⁻¹ s⁻¹	102 µM	significantly reduced	
RhoB-BFI: interaction of RhoB GTPase with recombinant full length BTN3A1 intracellular domain (BFI)		0.04351 s⁻¹	2200 M⁻¹ s⁻¹	19.7 µM	detected	
